Measured values as given in patent US20230265151A1, “GIP/GLP1 CO-AGONIST COMPOUNDS” (priority 2020, published 2023).
Like-named read-outs stand apart in the source and are kept apart here.

Assays:
Format in all cases: cell-based
hGLP-1R = hGLP-1R (Homo sapiens, UniProt P43220); assay: Functional cAMP formation (HTRF) in HEK-293 clonal cells expressing hGLP-1R, 0.1% bovine casein, without or with 1.0% human serum albumin; set-up: expressed in transfected cells; settings: for Emax: percent of maximal response to GLP-1(7-36)NH2; for EC50: cAMP, 0.1% bovine casein (no human serum albumin), geometric mean
In short: (§1)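 Cells were stimulated with peptide for 30 min at 37° C, then intracellular cAMP was measured by competitive HTRF (665/620 nm ratio) and converted to nM using a cAMP standard curve. Relative EC50 and Emax came from four-parameter logistic fits of percent maximal response against peptide concentration.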

hGCGR = molecular target: T1, hGCGR (Homo sapiens, UniProt P47871); assay: Functional cAMP formation (HTRF) in HEK-293 clonal cells expressing hGCGR, 0.1% bovine casein, without or with 1.0% human serum albumin; settings: 37° C.
T1 construct: expressed in transfected cells
In short: as §1

hGIPR = molecular target: T2, hGIPR (Homo sapiens, UniProt P48546); assay: Functional cAMP formation (HTRF) in HEK-293 clonal cells expressing hGIPR, 0.1% bovine casein, without or with 1.0% human serum albumin; settings: for Emax: percent of maximal response to GIP(1-42)NH2; for EC50: geometric mean
T2 construct: expressed in transfected cells
T2 sequence (P48546 22-466): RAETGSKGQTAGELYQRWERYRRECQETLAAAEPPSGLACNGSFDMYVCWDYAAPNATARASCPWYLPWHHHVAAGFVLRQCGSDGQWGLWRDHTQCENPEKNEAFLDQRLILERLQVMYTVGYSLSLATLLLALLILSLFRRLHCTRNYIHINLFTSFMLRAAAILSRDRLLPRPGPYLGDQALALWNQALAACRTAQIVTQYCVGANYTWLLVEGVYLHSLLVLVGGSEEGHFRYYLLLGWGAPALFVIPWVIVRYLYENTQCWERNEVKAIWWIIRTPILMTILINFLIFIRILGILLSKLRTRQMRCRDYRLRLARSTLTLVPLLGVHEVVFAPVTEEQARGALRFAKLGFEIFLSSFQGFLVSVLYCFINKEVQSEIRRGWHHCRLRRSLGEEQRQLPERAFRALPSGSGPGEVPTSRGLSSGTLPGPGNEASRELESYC
In short: as §1

[1] = hGLP-1R EC50, nM (SEM, n), 37° C.
[2] = hGCGR EC50, nM (SEM, n), cAMP, 0.1% bovine casein (no human serum albumin), geometric mean
[3] = HEK293, read-out: hGIPR Emax, % ± SEM, cAMP, 37° C., 0.1% bovine casein, arithmetic mean
[4] = hGIPR EC50, nM (SEM, n), cAMP, 37° C., 0.1% bovine casein (no human serum albumin)
[5] = HEK293, cAMP, 37° C., 0.1% bovine casein, arithmetic mean, read-out: hGLP-1R Emax, % ± SEM
[6] = 37° C., read-out: hGLP-1R EC50, nM (SEM, n)
[7] = cAMP, 0.1% bovine casein (no human serum albumin), geometric mean, read-out: hGCGR EC50, nM (SEM, n)
[8] = cAMP, 37° C., 0.1% bovine casein (no human serum albumin), read-out: hGIPR EC50, nM (SEM, n)

Sequence of hGLP-1R (P43220 24-463): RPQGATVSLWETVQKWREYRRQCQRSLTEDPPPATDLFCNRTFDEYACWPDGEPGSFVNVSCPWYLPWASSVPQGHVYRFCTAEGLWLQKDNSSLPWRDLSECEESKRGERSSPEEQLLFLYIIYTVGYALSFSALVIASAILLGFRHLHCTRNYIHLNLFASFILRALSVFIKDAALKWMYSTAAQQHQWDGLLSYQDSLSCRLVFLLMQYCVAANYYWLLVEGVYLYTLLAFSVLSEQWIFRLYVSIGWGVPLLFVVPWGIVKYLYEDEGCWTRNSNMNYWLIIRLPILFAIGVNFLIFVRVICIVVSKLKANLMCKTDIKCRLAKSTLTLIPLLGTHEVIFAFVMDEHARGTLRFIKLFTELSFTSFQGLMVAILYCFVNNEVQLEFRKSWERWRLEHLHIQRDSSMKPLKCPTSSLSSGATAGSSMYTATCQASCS
T1 sequence (P47871 26-477): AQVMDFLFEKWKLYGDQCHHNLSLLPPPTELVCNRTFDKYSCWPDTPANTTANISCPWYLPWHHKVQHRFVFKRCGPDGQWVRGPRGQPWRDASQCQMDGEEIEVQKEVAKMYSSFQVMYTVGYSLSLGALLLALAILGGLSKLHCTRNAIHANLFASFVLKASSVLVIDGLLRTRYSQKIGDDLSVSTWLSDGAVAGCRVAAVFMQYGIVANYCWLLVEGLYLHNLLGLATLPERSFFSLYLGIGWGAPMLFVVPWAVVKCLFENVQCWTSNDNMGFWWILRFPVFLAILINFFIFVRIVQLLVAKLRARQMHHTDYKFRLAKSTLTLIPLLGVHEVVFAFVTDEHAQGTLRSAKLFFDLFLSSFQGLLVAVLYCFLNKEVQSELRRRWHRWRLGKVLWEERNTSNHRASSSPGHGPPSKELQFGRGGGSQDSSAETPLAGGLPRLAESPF

| SMILES | EC50 (hGLP-1R; [1]) | EC50 (hGCGR; [2]) | Emax (hGIPR; [3]) | EC50 (hGIPR; [4]) | Emax (hGLP-1R; [5]) | EC50 (hGLP-1R; [6]) | EC50 (hGCGR; [7]) | EC50 (hGIPR; [8]) | also measured |
| --- | --- | --- | --- | --- | --- | --- | --- | --- | --- |
| CC[C@H](C)[C@H](NC(=O)[C@H](CCCN)NC(=O)[C@H](CC(=O)O)NC(=O)[C@H](CC(C)C)NC(=O)[C@](C)(CC(C)C)NC(=O)[C@@H](NC(=O)[C@](C)(CO)NC(=O)[C@H](Cc1ccc(O)cc1)NC(=O)[C@H](CC(=O)O)NC(=O)[C@H](CO)NC(=O)[C@@H](NC(=O)[C@](C)(Cc1ccccc1F)NC(=O)[C@@H](NC(=O)CNC(=O)[C@H](CCC(=O)O)NC(=O)C(C)(C)NC(=O)[C@@H](N)Cc1ccc(O)cc1)[C@@H](C)O)[C@@H](C)O)[C@@H](C)CC)C(=O)N[C@@H](C)C(=O)N[C@@H](CCC(N)=O)C(=O)NC(C)(C)C(=O)N[C@@H](CCC(=O)O)C(=O)N[C@@H](Cc1ccccc1)C(=O)N[C@H](C(=O)N[C@@H](CCCCNC(=O)COCCOCCNC(=O)COCCOCCNC(=O)CC[C@H](NC(=O)CCCCCCCCCOc1ccc(C(=O)O)cc1)C(=O)O)C(=O)N[C@@](C)(Cc1ccc(O)cc1)C(=O)N[C@@H](CC(C)C)C(=O)N[C@H](C(=O)N[C@@H](CCCCNC(=O)COCCOCCNC(=O)COCCOCCNC(=O)CC[C@H](NC(=O)CCCCCCCCCOc1ccc(C(=O)O)cc1)C(=O)O)C(=O)NCC(=O)NCC(=O)N1CCC[C@H]1C(=O)N[C@@H](CO)C(=O)N[C@@H](CO)C(=O)NCC(=O)N[C@@H](C)C(=O)N1CCC[C@H]1C(=O)N1CCC[C@H]1C(=O)N1CCC[C@H]1C(=O)N[C@@H](CO)C(N)=O)[C@@H](C)CC)[C@@H](C)CC [Example 307] | 0.376 nM | > 9950 nM | 105% | 0.0292 nM | – | – | – | – | Emax (hGLP-1R; HEK293, read-out: hGLP-1R Emax, % ± SEM, 0.1% bovine casein and 1.0% human serum albumin, 37° C.): 109%; EC50 (hGCGR; hGCGR EC50, nM (SEM, n), 0.1% bovine casein and 1.0% human serum albumin, geometric mean): > 9950 nM; Emax (hGIPR; HEK293, read-out: hGIPR Emax, % ± SEM, 0.1% bovine casein and 1.0% human serum albumin, 37° C.): 81.8%; EC50 (hGIPR; hGIPR EC50, nM (SEM, n), 0.1% bovine casein and 1.0% human serum albumin, 37° C.): 1.66 nM |
| CCCCCCCCCCCC(=O)N[C@@H](CCC(=O)NCCOCCOCC(=O)NCCOCCOCC(=O)NCCCC[C@H](NC(=O)[C@H](CO)NC(=O)[C@@H]1CCCN1C(=O)[C@@H]1CCCN1C(=O)[C@@H]1CCCN1C(=O)[C@H](C)NC(=O)CNC(=O)[C@H](CO)NC(=O)[C@H](CO)NC(=O)[C@@H]1CCCN1C(=O)CNC(=O)CNC(=O)[C@H](CCC(=O)O)NC(=O)[C@@H](NC(=O)[C@H](CC(C)C)NC(=O)[C@](C)(Cc1ccc(O)cc1)NC(=O)[C@@H](CCC(=O)O)NC(=O)[C@@H](NC(=O)[C@H](Cc1ccccc1)NC(=O)[C@H](CCC(=O)O)NC(=O)C(C)(C)NC(=O)[C@H](CCC(N)=O)NC(=O)[C@H](C)NC(=O)[C@H](CCCCNC(=O)COCCOCCNC(=O)COCCOCCNC(=O)CC[C@H](NC(=O)CCCCCCCCCCC)C(=O)O)NC(=O)[C@H](CCCN)NC(=O)[C@H](CC(=O)O)NC(=O)[C@H](CC(C)C)NC(=O)[C@](C)(CC(C)C)NC(=O)[C@@H](NC(=O)[C@H](CO)NC(=O)[C@H](Cc1ccc(OC)cc1)NC(=O)[C@H](CC(=O)O)NC(=O)[C@H](CO)NC(=O)[C@@H](NC(=O)[C@](C)(Cc1ccccc1F)NC(=O)[C@@H](NC(=O)CNC(=O)[C@H](CCC(=O)O)NC(=O)C(C)(C)NC(=O)[C@@H](N)Cc1ccc(O)cc1)[C@@H](C)O)[C@@H](C)O)[C@@H](C)CC)[C@@H](C)CC)[C@@H](C)CC)C(N)=O)C(=O)O [Example 291] | – | – | – | – | 97.6% | 0.207 nM | > 9950 nM | 0.012 nM | Emax (hGLP-1R; HEK293, 0.1% bovine casein and 1.0% human serum albumin, 37° C., read-out: hGLP-1R Emax, % ± SEM): 100%; EC50 (hGCGR; 0.1% bovine casein and 1.0% human serum albumin, geometric mean, read-out: hGCGR EC50, nM (SEM, n)): > 9950 nM; EC50 (hGIPR; 0.1% bovine casein and 1.0% human serum albumin, 37° C., read-out: hGIPR EC50, nM (SEM, n)): 0.833 nM; Emax (hGIPR; HEK293, 0.1% bovine casein and 1.0% human serum albumin, 37° C., read-out: hGIPR Emax, % ± SEM): 92.9% |
| CC[C@H](C)[C@H](NC(=O)[C@H](CC(C)C)NC(=O)[C@](C)(Cc1ccc(O)cc1)NC(=O)[C@@H](CCC(=O)O)NC(=O)[C@@H](NC(=O)[C@H](Cc1ccccc1)NC(=O)[C@H](CCCCNC(=O)COCCOCCNC(=O)COCCOCCNC(=O)CC[C@H](NC(=O)CCCCCCCCCCCCC(=O)O)C(=O)O)NC(=O)C(C)(C)NC(=O)[C@H](CCC(N)=O)NC(=O)[C@H](C)NC(=O)[C@H](CCCCNC(=O)COCCOCCNC(=O)COCCOCCNC(=O)CC[C@H](NC(=O)CCCCCCCCCCCCC(=O)O)C(=O)O)NC(=O)[C@H](CCCN)NC(=O)[C@H](CC(=O)O)NC(=O)[C@H](CC(C)C)NC(=O)[C@](C)(CC(C)C)NC(=O)[C@@H](NC(=O)C(C)(C)NC(=O)[C@H](Cc1ccncc1)NC(=O)[C@H](CC(=O)O)NC(=O)[C@H](CO)NC(=O)[C@@H](NC(=O)[C@](C)(Cc1ccccc1F)NC(=O)[C@@H](NC(=O)CNC(=O)[C@H](CCC(=O)O)NC(=O)C(C)(C)NC(=O)[C@@H](N)Cc1ccc(O)cc1)[C@@H](C)O)[C@@H](C)O)[C@@H](C)CC)[C@@H](C)CC)C(=O)N[C@@H](CCCN)C(=O)NCC(=O)NCC(=O)N1CCC[C@H]1C(=O)N[C@@H](CO)C(=O)N[C@@H](CO)C(=O)NCC(=O)N[C@@H](C)C(=O)N1CCC[C@H]1C(=O)N1CCC[C@H]1C(=O)N1CCC[C@H]1C(=O)N[C@@H](CO)C(N)=O [Example 406] | – | – | – | – | 98.5% | 0.351 nM | > 9950 nM | 0.00896 nM | Emax (hGLP-1R; HEK293, cAMP, 37° C., 0.1% bovine casein and 1.0% human serum albumin, read-out: hGLP-1R Emax, % ± SEM): 96%; EC50 (hGCGR; cAMP, 0.1% bovine casein and 1.0% human serum albumin, geometric mean (SEM, n), read-out: hGCGR EC50, nM (SEM, n)): > 9950 nM; Emax (hGIPR; HEK293, cAMP, 37° C., 0.1% bovine casein and 1.0% human serum albumin, read-out: hGIPR Emax, % ± SEM): 87.3% |
| CCCC[C@H](NC(=O)[C@H](CC(=O)O)NC(=O)[C@H](CO)NC(=O)[C@@H](NC(=O)[C@](C)(Cc1ccccc1F)NC(=O)[C@@H](NC(=O)CNC(=O)[C@H](CCC(=O)O)NC(=O)C(C)(C)NC(=O)[C@@H](N)Cc1ccc(O)cc1)[C@@H](C)O)[C@@H](C)O)C(=O)N[C@@H](CO)C(=O)N[C@H](C(=O)N[C@@](C)(CC(C)C)C(=O)N[C@@H](CC(C)C)C(=O)N[C@@H](CC(=O)O)C(=O)N[C@@H](CCCN)C(=O)N[C@H](C(=O)N[C@@H](C)C(=O)N[C@@H](CCC(N)=O)C(=O)NC(C)(C)C(=O)N[C@@H](CCCCNC(=O)COCCOCCNC(=O)COCCOCCNC(=O)CC[C@H](NC(=O)CCCCCCCCCOc1ccc(C(=O)O)cc1)C(=O)O)C(=O)N[C@@H](Cc1ccccc1)C(=O)N[C@H](C(=O)N[C@H](CCC(=O)O)C(=O)N[C@@](C)(Cc1ccc(O)cc1)C(=O)N[C@@H](CC(C)C)C(=O)N[C@H](C(=O)N[C@@H](CCCCNC(=O)COCCOCCNC(=O)COCCOCCNC(=O)CC[C@H](NC(=O)CCCCCCCCCOc1ccc(C(=O)O)cc1)C(=O)O)C(=O)NCC(=O)NCC(=O)N1CCC[C@H]1C(=O)N[C@@H](CO)C(=O)N[C@@H](CO)C(=O)NCC(=O)N[C@@H](C)C(=O)N1CCC[C@H]1C(=O)N1CCC[C@H]1C(=O)N1CCC[C@H]1C(=O)N[C@@H](CO)C(N)=O)[C@@H](C)CC)[C@@H](C)CC)[C@@H](C)CC)[C@@H](C)CC [Example 333] | 0.388 nM | > 9950 nM | 109% | 0.0062 nM | – | – | – | – | Emax (hGLP-1R; HEK293, read-out: hGLP-1R Emax, % ± SEM, cAMP, 37° C., 0.1% bovine casein and 1.0% human serum albumin): 93.3%; EC50 (hGCGR; hGCGR EC50, nM (SEM, n), cAMP, 0.1% bovine casein and 1.0% human serum albumin, geometric mean (SEM, n)): > 9950 nM; Emax (hGIPR; HEK293, read-out: hGIPR Emax, % ± SEM, cAMP, 37° C., 0.1% bovine casein and 1.0% human serum albumin): 100% |
